Test results published in patent US5262411A, “Isocephem derivatives, and antimicrobial composition containing the derivatives” (Otsuka Pharmaceutical Co., Ltd., priority 1989, dated 1993).
Converted amounts (≈) assume the structure as drawn. Like-named read-outs stand apart in the source and are kept apart here.

Assays:
Type in all cases: cell-based
[1] = tested on: S. aureaus FDA-209P; assay: MIC against S. aureaus FDA-209P by the plate diluted method; settings: Staphylococcus aureus, FDA209P
Description: (§1) In order to investigate the in vitro activity of the test compounds against various bacteria, the minimal inhibitory concentration (MIC) values were determined by the plate diluted method (See CHEMOTHERAPY, 22, 1126-1128, 1974.)
(§2) Each strain was adjusted to 1×10^6 cells/ml (O.D. 600 mμ, 0.07 to 0.16).

[2] = tested on: M. moganii IIDkono; assay: MIC against M. moganii IIDkono by the plate diluted method
Description: as §1, §2

[3] = tested on: K. pneumoniae NCTC-9632; assay: MIC against K. pneumoniae NCTC-9632 by the plate diluted method; settings: Klebsiella pneumoniae, NCTC9632; K. pneumoniae NCTC-9632; 1×10^6 cells/ml; read-out: MIC
Description: as §1, §2

[4] = tested on: P. aeruginosa ATCC-10145; assay: MIC against P. aeruginosa ATCC-10145 by the plate diluted method; settings: Pseudomonas aeruginosa, ATCC10145; P. aeruginosa ATCC-10145; 1×10^6 cells/ml; read-out: MIC
Description: as §1, §2

[5] = tested on: P. aeruginosa E-2; assay: MIC against P. aeruginosa E-2 by the plate diluted method; settings: Pseudomonas aeruginosa, E2; P. aeruginosa E-2; 1×10^6 cells/ml; read-out: MIC
Description: as §1, §2

[6] = tested on: A. calcoaceticus Ac-54; assay: MIC against A. calcoaceticus Ac-54 by the plate diluted method; settings: Acinetobacter calcoaceticus, AC54; A. calcoaceticus Ac-54; 1×10^6 cells/ml; read-out: MIC
Description: as §1, §2

[7] = tested on: S. marcescens IFO 12648; assay: MIC against S. marcescens IFO 12648 by the plate diluted method; settings: Serratia marcescens, IFO12648; S. marcescens IFO 12648; 1×10^6 cells/ml; read-out: MIC
Description: as §1, §2

[8] = tested on: E. coli No. 29; assay: MIC against E. coli No. 29 by the plate diluted method; settings: Escherichia coli, 1×10^6 cells/ml
Description: as §1, §2

[9] = M. moganii IIDkono, 1×10^6 cells/ml, read-out: MIC
[10] = S. aureaus FDA-209P, 1×10^6 cells/ml, read-out: MIC

SMILES	MIC [1] [µg/mL]	MIC [2, 9] [µg/mL]	MIC [3] [µg/mL]	MIC [4] [µg/mL]	MIC [5] [µg/mL]	MIC [6] [µg/mL]	MIC [7] [µg/mL]	MIC [8] [µg/mL]	MIC [1, 10] [µg/mL]	MIC [2] [µg/mL]
CC(C)(O/N=C(\C(=O)N[C@@H]1C(=O)N2C(C(=O)[O-])=C(CSc3cc[n+](CC(=O)c4ccc(O)c(O)c4)cc3)CS[C@H]12)c1csc(N)n1)C(=O)O [No. 16, (6R,7R)-7-[(Z)-2-(2-aminothiazol-4-yl)-2-(1-carboxy-1-methylethoxy)iminoacetamide]-3-[[1-[2-(3,4-dihydroxyphenyl)-2-oxo]ethyl]-4-pyridinio]thiomethyl-3-cephem-4-carboxylate]	1.56 (≈ 2.14 µM)	0.05 (≈ 0.0686 µM)	0.012 (≈ 0.0165 µM)	0.1 (≈ 0.137 µM)	0.1 (≈ 0.137 µM)	0.05 (≈ 0.0686 µM)	0.024 (≈ 0.0329 µM)	0.012 (≈ 0.0165 µM)		
CC(C)(O/N=C(\C(=O)N[C@@H]1C(=O)N2C(C(=O)[O-])=C(CSc3cc[n+](Cc4cc(=O)c(O)c[nH]4)cc3)SC[C@H]12)c1csc(N)n1)C(=O)O [No. 7, (6S,7S)-7-[(Z)-2-(2-aminothiazol-4-yl)-2-(1-carboxy-1-methylethoxy)imino]acetamide-3-[(5-hydroxy-4-pyridone-2-yl)methyl-4-pyridinio]thiomethylisocephem-4-carboxylate]	3.13 (≈ 4.46 µM)	0.024 (≈ 0.0342 µM)	0.012 (≈ 0.0171 µM)	0.1 (≈ 0.142 µM)	0.1 (≈ 0.142 µM)	0.2 (≈ 0.285 µM)	0.012 (≈ 0.0171 µM)	0.012 (≈ 0.0171 µM)		
CC(C)(O/N=C(\C(=O)N[C@@H]1C(=O)N2C(C(=O)[O-])=C(CSc3cc[n+](Cc4cc(=O)c(O)c[nH]4)cc3)CS[C@H]12)c1csc(N)n1)C(=O)O [No. 14]			0.012 (≈ 0.0171 µM)	0.2 (≈ 0.285 µM)	0.1 (≈ 0.142 µM)	0.39 (≈ 0.556 µM)	0.024 (≈ 0.0342 µM)	0.05 (≈ 0.0712 µM)	6.25 (≈ 8.91 µM)	0.05 (≈ 0.0712 µM)
Nc1nc(/C(=N/OCc2cc(=O)c(O)cn2O)C(=O)N[C@@H]2C(=O)N3C(C(=O)O)=C(CSc4nnnn4CCO)SC[C@H]23)cs1 [No. 11, (6S,7S)-7-[(Z)-2-(2-aminothiazol-4-yl)-2-(1,5-dihydroxy-4-pyridone-2-ylmethoxyimino)acetamide]-3-[1-(2-hydroxyethyl)-1H-tetrazole-5-ylthiomethyl]isocephem-4-carboxylic acid]		0.024 (≈ 0.036 µM)	0.012 (≈ 0.018 µM)	0.05 (≈ 0.075 µM)	0.05 (≈ 0.075 µM)	0.2 (≈ 0.3 µM)	0.012 (≈ 0.018 µM)	0.05 (≈ 0.075 µM)	50 (≈ 75 µM)	
CC(C)(O/N=C(\C(=O)N[C@@H]1C(=O)N2C(C(=O)[O-])=C(CSc3cc[n+](CC(=O)NNC(=O)c4ccc(O)c(O)c4)cc3)SC[C@H]12)c1csc(N)n1)C(=O)O [No. 4]	3.13 (≈ 3.98 µM)	0.024 (≈ 0.0305 µM)	≤ 0.006	0.1 (≈ 0.127 µM)	0.1 (≈ 0.127 µM)	0.2 (≈ 0.254 µM)	0.024 (≈ 0.0305 µM)	0.012 (≈ 0.0153 µM)		
Cc1nnc(SCC2=C(C(=O)O)N3C(=O)[C@@H](NC(=O)/C(=N\OC(C(=O)O)c4ccc(O)c(O)c4)c4csc(N)n4)[C@H]3CS2)s1 (stereo partly drawn) [No. 6, (6S,7S)-7-{(Z)-2-(2-aminothiazol-4-yl)-2-[carboxy(3,4-dihydroxyphenol)methoxyimino]}acetamide-3-(2-methyl-1,3,4-thiadiazol-5-ylthiomethyl)isocephem-4-carboxylic acid]	3.13 (≈ 4.6 µM)	0.024 (≈ 0.0353 µM)	≤ 0.006	0.2 (≈ 0.294 µM)	0.39 (≈ 0.574 µM)	0.2 (≈ 0.294 µM)	0.012 (≈ 0.0177 µM)	0.012 (≈ 0.0177 µM)		
Nc1nc(/C(=N/OCc2cc(=O)c(O)cn2O)C(=O)N[C@@H]2C(=O)N3C(C(=O)O)=C(CSc4nncs4)SC[C@H]23)cs1 [No. 2, (6S,7S)-7-[(Z)-2-(2-Aminothiazol-4-yl)-2-(1,5-dihydroxy-4-pyridone-2-ylmethoxyimino)acetamide]-3-(1,3,4-thiadiazol-5-yl)thiomethyl-isocephem-4-carboxylic acid]		0.1 (≈ 0.157 µM)	≤ 0.006	0.05 (≈ 0.0783 µM)	0.05 (≈ 0.0783 µM)	0.1 (≈ 0.157 µM)	0.05 (≈ 0.0783 µM)	0.024 (≈ 0.0376 µM)	12.5 (≈ 19.6 µM)	
CC(C)(O/N=C(\C(=O)N[C@@H]1C(=O)N2C(C(=O)[O-])=C(CSc3cc[n+](CC(=O)c4ccc(O)c(O)c4)cc3)SC[C@H]12)c1csc(N)n1)C(=O)O [No. 3, (6S,7S)-7-[(Z)-2-(2-aminothiazol-4-yl)-2-(1-carboxy-1-methylethoxy)iminoacetamide]-3-{[1-[2-(3,4-dihydroxyphenyl)-2-oxo]ethyl]-4-pyridinio}thiomethylisocephem-4-carboxylate]		0.024 (≈ 0.0329 µM)	≤ 0.006	0.05 (≈ 0.0686 µM)	0.05 (≈ 0.0686 µM)	0.1 (≈ 0.137 µM)	0.024 (≈ 0.0329 µM)	≤ 0.006	0.78 (≈ 1.07 µM)	
CC(C)(O/N=C(\C(=O)N[C@@H]1C(=O)N2C(C(=O)[O-])=C(CSc3cc[n+](CC(=O)NNC(=O)c4ccc(O)c(O)c4)cc3)CS[C@H]12)c1csc(N)n1)C(=O)O [No. 15, (6R,7R)-7-[(Z)-2-(2-aminothiazol-4-yl)-2-(1-carboxy-1-methylethoxy)imino]acetamide-3-[1-(N-3,4-dihydroxybenzamide)carbamoylmethyl-4-pyridinio]thiomethyl-3-cephem-4-carboxylate]	3.13 (≈ 3.98 µM)		0.012 (≈ 0.0153 µM)	0.05 (≈ 0.0635 µM)	0.05 (≈ 0.0635 µM)	0.1 (≈ 0.127 µM)	0.05 (≈ 0.0635 µM)	0.012 (≈ 0.0153 µM)		0.05 (≈ 0.0635 µM)
CO/N=C(\C(=O)N[C@@H]1C(=O)N2C(C(=O)[O-])=C(CSc3cc[n+](CC(=O)c4ccc(O)c(O)c4)cc3)CS[C@H]12)c1csc(N)n1 [No. 17, (6R,7R)-[(Z)-2-(2-aminothiazol-4-yl)-2-methoxyiminoacetamide]-3-[[1-[2-(3,4-dihydroxyphenyl)-2-oxo]ethyl]-4-pyridinio]thiomethyl-3-cephem-4-carboxylat]		0.1 (≈ 0.152 µM)	0.012 (≈ 0.0183 µM)	0.2 (≈ 0.305 µM)	0.39 (≈ 0.594 µM)	0.1 (≈ 0.152 µM)	0.05 (≈ 0.0761 µM)	0.012 (≈ 0.0183 µM)	0.39 (≈ 0.594 µM)	
Cc1nnc(SCC2=C(C(=O)O)N3C(=O)[C@@H](NC(=O)/C(=N\OCc4cc(=O)c(O)cn4O)c4csc(N)n4)[C@H]3CS2)s1 [No. 1, (6S,7S)-7-[(Z)-2-(2-Aminothiazol-4-yl)-2-(1,5-dihydroxy-4-pyridone-2-ylmethoxyimino)acetamide]-3-(2-methyl-1,3,4-thiadiazol-5-yl)thiomethyl-isocephem-4-carboxylic acid]			0.012 (≈ 0.0184 µM)	0.1 (≈ 0.153 µM)	0.2 (≈ 0.306 µM)	0.1 (≈ 0.153 µM)	0.024 (≈ 0.0368 µM)	0.024 (≈ 0.0368 µM)	25 (≈ 38.3 µM)	0.05 (≈ 0.0766 µM)
